Test results reported in patent US4228298A, “15-Deoxy-16-hydroxy-16-fluoromethyl, difluoromethyl or trifluoromethyl prostaglandins of the E and F series” (American Cyanamid Company, priority 1979, dated 1980).

How the values were obtained:
Format in all cases: in vivo
[1] = tested on: bronchospasms elicited by acetylcholine; test: Konzett procedure, bronchodilator activity against bronchospasms elicited by intravenous acetylcholine; conditions: Cavia porcellus; spasmogen acetylcholine; three logarithmic cumulative intravenous doses; guinea-pigs; read-out: ED 50 (spasmogen Acetylcholine)
Method: (§1) The bronchodilator activity for representative compounds of this invention was determined in Guinea-Pigs against bronchospasms elicited by intravenous injections of serotonin, histamine, and acetylcholine, by the Konzett procedure the details of which are those discussed by J. Lulling, P. Lievens, F. El Sayed and J. Prignot, Arzeimittel-Forschung 18, 995 (1968).
(§2) In the table which follows, bronchodilator activity for representative compounds of the invention against spasmogenic agents serotonin, histamine, and acetylcholine is expressed as an ED50 determined from the results obtained with three logarithmic cumulative intravenous doses.

[2] = tested on: bronchospasms elicited by serotonin; test: Konzett procedure, bronchodilator activity against bronchospasms elicited by intravenous serotonin; conditions: Cavia porcellus; spasmogen serotonin; three logarithmic cumulative intravenous doses; guinea-pigs; read-out: ED 50 (spasmogen Serotonin)
Method: as §1, §2

[3] = tested on: bronchospasms elicited by histamine; test: Konzett procedure, bronchodilator activity against bronchospasms elicited by intravenous histamine; conditions: Cavia porcellus; spasmogen histamine; three logarithmic cumulative intravenous doses; guinea-pigs; read-out: ED 50 (spasmogen Histamine)
Method: as §1, §2

SMILES	ED50 [1]	ED50 [2]	ED50 [3]
CCCCC(O)(C/C=C/[C@H]1[C@H](O)CC(=O)[C@@H]1C/C=C\CCCC(=O)O)C(F)F (relative stereo) [dl-11α,16-dihydroxy-9-oxo-16-difluoromethyl-5-cis-13-trans prostadienoic acid]	4.04 µg/kg	4.6 µg/kg	2.78 µg/kg
CCCCC(O)(CF)C/C=C/[C@H]1[C@H](O)CC(=O)[C@@H]1C/C=C\CCCC(=O)O (relative stereo) [dl-11α,16-dihydroxy-9-oxo-16-fluoromethyl-5-cis-13-trans prostadienoic acid]	1.94 µg/kg	1.38 µg/kg	2.57 µg/kg
CCCCC(O)(C/C=C/[C@H]1[C@H](O)CC(=O)[C@@H]1C/C=C\CCCC(=O)O)C(F)(F)F (relative stereo) [dl-11α,16-dihydroxy-9-oxo-16-trifluoromethyl-5-cis-13-trans prostadienoic acid]	10 µg/kg	7.96 µg/kg	4.15 µg/kg
